From patent US20110046147A1, “17BETA-HYDROXYSTEROID DEHYDROGENASE TYPE 1 INHIBITORS FOR THE TREATMENT OF HORMONE-RELATED DISEASES” (UNIVERSITAT DES SAARLANDES, priority 2007, published 2011)

How the values were obtained:
[1] = biological target: T1, 17β-HSD1 (Homo sapiens, UniProt P14061); assay: Inhibition of 17β-HSD1 (estrone to estradiol, radio-HPLC); type: biochemical; settings: for IC50: human placenta enzyme, 500 nM estrone, NADH 500 μM
T1 construct: In both cases, human placenta served as the enzyme source; from tissue; host or cells: human placenta
T1 sequence (P14061 1-328): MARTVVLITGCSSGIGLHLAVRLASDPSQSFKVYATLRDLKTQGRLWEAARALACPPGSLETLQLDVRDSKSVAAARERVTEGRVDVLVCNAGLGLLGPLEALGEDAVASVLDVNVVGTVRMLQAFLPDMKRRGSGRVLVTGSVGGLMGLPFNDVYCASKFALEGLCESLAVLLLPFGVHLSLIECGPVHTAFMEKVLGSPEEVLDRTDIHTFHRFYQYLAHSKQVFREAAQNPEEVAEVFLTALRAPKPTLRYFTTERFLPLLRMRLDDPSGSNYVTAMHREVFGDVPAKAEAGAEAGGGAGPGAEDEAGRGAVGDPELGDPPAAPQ
Procedure: In the 17β-HSD1 test, NADH is employed as a cosubstrate at a final concentration of 500 μM in order to avoid the product inhibition occurring with NADPH. The enzyme preparation is diluted with test buffer to such an extent that the control conversion is 10 to maximally 20% (about 1:650). As the substrate, estrone in a final concentration of 500 nM is used, of which 3 nM is tritiated. 2,4,6,7-[^3H]estrone is purchased from Perkin-Elmer, Boston. The inhibitor is added as a solution in DMSO (control: pure DMSO without inhibitor; the final concentration of DMSO in the assay is 1% in all cases).
(§1) After the reaction, the substrate and product are extracted by partitioning with ether, separated by chromatography (HPLC) and quantified by means of radiodetection.

[2] = biological target: T2, 17β-HSD2 (Homo sapiens, UniProt P37059); assay: Inhibition of 17β-HSD2 (estradiol to estrone, radio-HPLC); type: biochemical; settings: human placenta microsome fraction, 500 nM estradiol, NAD+ 1500 μM
T2 construct: from tissue; host or cells: human placenta, microsome fraction
T2 sequence (P37059 1-387): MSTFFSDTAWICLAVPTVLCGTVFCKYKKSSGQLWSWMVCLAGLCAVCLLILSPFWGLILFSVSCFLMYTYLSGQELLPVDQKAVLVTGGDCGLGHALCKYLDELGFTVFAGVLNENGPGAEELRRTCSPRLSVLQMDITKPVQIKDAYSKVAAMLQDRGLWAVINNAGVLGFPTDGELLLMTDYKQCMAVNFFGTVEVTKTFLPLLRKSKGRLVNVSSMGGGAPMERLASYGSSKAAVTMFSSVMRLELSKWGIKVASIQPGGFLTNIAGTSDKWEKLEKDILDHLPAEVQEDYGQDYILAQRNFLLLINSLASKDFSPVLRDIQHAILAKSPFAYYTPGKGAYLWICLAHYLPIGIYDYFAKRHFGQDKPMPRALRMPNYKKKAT
Procedure: Determination of the inhibitory activity of the potential inhibitors: Inhibition of 17β-HSD1 and 17β-HSD2: In both cases, human placenta served as the enzyme source (Lin, S.-X. et al., J. Biol. Chem., 267: 16182-16187 (1992)).
In the 17β-HSD2 test, the natural cosubstrate NAD^+ is employed at a final concentration of 1500 μM. The microsome fraction is diluted in test buffer, so that a control conversion of 20 to 30% results (about 1:350). As the substrate, estradiol in a final concentration of 500 nM is used, of which 3 nM is tritiated. 2,4,6,7-[^3H]estradiol is also purchased from Perkin-Elmer, Boston. The inhibitor is added as a solution in DMSO (control: pure DMSO without inhibitor; the final concentration of DMSO in the assay is […]). After the addition of the substrate, incubation is performed at 37° C. for 20 minutes. The reaction is quenched by the addition of HgCl2 (final concentration of HgCl2: 0.166 mM).
as §1

[3] = biological target: T3, CYP2C19 (Homo sapiens, UniProt P33261); assay: Inhibition of hepatic CYP enzymes: CYP2C19; type: biochemical; settings: read-out: CYP2C19 IC50 (mean ± SD)
T3 construct: purchased Becton Dickinson GmbH (Heidelberg)
Text: (§2) Drug interactions (inhibition of hepatic CYP enzymes): The inhibition of six human hepatic cytochrome P450 enzymes by selected compounds was examined by means of the kit supplied by Becton Dickinson GmbH (Heidelberg).

[4] = biological target: T4, CYP2B6 (Homo sapiens, UniProt P20813); assay: Inhibition of hepatic CYP enzymes: CYP2B6; type: biochemical; settings: read-out: CYP2B6 IC50 (mean ± SD)
T4 construct: purchased Becton Dickinson GmbH (Heidelberg)
T4 sequence (P20813 1-491): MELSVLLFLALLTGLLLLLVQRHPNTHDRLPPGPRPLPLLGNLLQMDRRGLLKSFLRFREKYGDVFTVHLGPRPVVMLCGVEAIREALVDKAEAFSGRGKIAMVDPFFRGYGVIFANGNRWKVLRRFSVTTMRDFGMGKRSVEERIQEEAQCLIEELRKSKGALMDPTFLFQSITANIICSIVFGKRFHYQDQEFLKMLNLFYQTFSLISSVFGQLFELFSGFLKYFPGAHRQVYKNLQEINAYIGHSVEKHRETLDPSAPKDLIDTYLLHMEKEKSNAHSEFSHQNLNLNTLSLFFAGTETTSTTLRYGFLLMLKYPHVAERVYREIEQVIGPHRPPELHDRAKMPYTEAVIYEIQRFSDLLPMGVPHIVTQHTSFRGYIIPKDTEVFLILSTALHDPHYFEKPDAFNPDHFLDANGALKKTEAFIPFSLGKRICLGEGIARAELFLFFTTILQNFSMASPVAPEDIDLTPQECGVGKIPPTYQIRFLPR
Text: as §2

[5] = biological target: T5, CYP1A2 (Homo sapiens, UniProt P05177); assay: Inhibition of hepatic CYP enzymes: CYP1A2; type: biochemical; settings: read-out: CYP1A2 IC50 (mean ± SD)
T5 construct: purchased Becton Dickinson GmbH (Heidelberg)
T5 sequence (P05177 1-516): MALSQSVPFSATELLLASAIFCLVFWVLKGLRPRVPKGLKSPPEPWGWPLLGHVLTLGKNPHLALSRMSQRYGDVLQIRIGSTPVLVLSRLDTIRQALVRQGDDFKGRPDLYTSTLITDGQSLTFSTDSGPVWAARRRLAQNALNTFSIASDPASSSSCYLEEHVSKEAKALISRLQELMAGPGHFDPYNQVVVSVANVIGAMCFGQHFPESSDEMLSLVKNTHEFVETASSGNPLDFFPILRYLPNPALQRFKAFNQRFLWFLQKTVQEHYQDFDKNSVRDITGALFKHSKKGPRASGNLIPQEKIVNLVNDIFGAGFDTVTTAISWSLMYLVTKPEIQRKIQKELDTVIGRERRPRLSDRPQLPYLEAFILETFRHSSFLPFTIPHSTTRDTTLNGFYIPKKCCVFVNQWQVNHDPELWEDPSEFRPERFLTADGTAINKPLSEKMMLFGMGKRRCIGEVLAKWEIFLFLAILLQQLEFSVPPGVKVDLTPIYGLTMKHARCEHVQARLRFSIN
Text: as §2

[6] = biological target: T6, CYP2D6 (Homo sapiens, UniProt P10635); assay: Inhibition of hepatic CYP enzymes: CYP2D6; type: biochemical; settings: read-out: CYP2D6 IC50 (mean ± SD)
T6 construct: purchased Becton Dickinson GmbH (Heidelberg)
Text: as §2

[7] = system: estrogen receptor; settings: cited from earlier work
[8] = biological target: T7, estrogen receptor α (Homo sapiens, UniProt P03372); assay: Affinity for the estrogen receptor α (RBA); type: binding; settings: data not stated
T7 sequence (P03372 1-595): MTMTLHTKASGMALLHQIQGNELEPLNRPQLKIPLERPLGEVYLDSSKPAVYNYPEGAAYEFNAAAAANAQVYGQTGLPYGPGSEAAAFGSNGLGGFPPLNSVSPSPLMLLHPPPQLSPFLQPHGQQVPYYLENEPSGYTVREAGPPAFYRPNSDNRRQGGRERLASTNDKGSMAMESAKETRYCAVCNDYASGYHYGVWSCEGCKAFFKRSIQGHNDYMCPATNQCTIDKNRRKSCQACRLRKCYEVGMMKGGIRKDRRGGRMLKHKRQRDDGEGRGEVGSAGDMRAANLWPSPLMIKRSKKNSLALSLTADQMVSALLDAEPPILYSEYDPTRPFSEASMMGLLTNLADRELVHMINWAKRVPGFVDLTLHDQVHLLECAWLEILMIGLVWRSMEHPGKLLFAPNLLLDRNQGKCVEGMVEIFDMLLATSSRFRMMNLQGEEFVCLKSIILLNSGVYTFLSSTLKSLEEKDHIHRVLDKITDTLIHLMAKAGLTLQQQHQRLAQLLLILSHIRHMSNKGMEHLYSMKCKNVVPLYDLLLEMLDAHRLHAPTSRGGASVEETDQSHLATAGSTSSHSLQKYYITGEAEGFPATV
Procedure: Slight changes were made: The respective inhibitor was incubated at RT for 2 h with shaking.
The receptor affinities are established as RBA (relative binding affinity) values. The RBA value of the reference estradiol is set to 100%.

T6 sequence (P10635 whole entry): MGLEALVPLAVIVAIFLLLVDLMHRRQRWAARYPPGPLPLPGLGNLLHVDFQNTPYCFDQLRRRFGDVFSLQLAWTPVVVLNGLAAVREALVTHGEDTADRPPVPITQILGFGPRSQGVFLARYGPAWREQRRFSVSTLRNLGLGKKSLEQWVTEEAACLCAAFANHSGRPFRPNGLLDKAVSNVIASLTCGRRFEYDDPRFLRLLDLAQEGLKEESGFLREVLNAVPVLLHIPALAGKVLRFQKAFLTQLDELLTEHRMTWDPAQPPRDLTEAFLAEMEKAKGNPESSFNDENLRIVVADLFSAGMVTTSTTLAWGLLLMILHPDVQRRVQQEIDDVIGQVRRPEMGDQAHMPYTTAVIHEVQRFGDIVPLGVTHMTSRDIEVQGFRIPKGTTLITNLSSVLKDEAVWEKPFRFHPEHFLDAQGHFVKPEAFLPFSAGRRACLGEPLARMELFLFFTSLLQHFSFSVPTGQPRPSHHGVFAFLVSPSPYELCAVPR
T3 sequence (P33261 whole entry): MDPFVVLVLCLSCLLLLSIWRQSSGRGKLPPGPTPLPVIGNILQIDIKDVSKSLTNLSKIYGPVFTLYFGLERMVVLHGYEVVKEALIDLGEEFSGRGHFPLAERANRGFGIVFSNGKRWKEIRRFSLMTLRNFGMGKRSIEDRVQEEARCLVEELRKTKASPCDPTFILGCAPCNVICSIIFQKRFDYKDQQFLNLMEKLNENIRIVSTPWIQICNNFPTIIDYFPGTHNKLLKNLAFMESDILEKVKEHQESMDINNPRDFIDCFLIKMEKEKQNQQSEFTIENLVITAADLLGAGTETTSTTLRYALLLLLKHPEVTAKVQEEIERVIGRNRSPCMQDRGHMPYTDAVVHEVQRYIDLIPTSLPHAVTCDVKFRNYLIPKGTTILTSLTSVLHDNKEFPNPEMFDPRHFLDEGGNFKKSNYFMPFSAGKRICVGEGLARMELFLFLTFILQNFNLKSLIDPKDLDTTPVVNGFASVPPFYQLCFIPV

IC50 [1] [µM]	IC50 [2] [µM]	IC50 [3] [µM]	IC50 [4] [µM]	IC50 [5] [µM]	IC50 [6] [µM]	inhibition of 17β-HSD1 (in words) [1]	Inhibition of 17β-HSD1, IC50 (nM) ([1]; Table 6, isomeric bis(hydroxyphenyl)-1,3-thiazoles)	affinity for the estrogen receptor (in words) [8]	Selectivity IC50 (17β-HSD2)/IC50 (17β-HSD1) ([1]; ratio of IC50 values)	SMILES	RBA (%) (Katzenellenbogen patent) [7]
0.28	2.5	4.57 ± 0.05	14.2 ± 0.44	4.92 ± 0.09	7.76 ± 0.03	–	–	–	–	Oc1cccc(-c2cnc(-c3cccc(O)c3)s2)c1 [Compound 22, 3,3′-(1,3-thiazole-2,5-diyl)diphenol]	–
–	–	–	–	–	–	no activity	no inhibition	–	–	Oc1ccc(-c2csc(-c3ccc(O)cc3)n2)cc1 [Compound 25, 4,4′-(1,3-Thiazole-2,4-diyl)diphenol]	0.018
0.41	2.22	–	–	–	–	–	–	negligible	5.4	Oc1cccc(-c2csc(-c3cccc(O)c3)n2)c1 [Compound 26, 3,3′-(1,3-Thiazole-2,4-diyl)diphenol]	–
